Experimental data as given in EP4755886A1 (Chengdu Chipscreen Pharmaceutical Ltd., priority 2023, dated 2025).

Legend:
[1] = tested on: MTAP^-/- HCT-116 cells; assay: Cell proliferation (MTS), MTAP-/- HCT-116; type: cell-based, human; conditions: for Selectivity: HCT116 WT IC50 relative to HCT116 MTAP-/- IC50; for IC50: Homo sapiens, 240 h, MTAP-/- HCT-116, 10 days with compound, MTS reading, read-out: IC50 HCT116 MTAP-/-
Excerpt: The colon cancer cell strain HCT-116 (purchased from Nanjing Cobioer) was co-transfected with the gene editing tool CRISPR/Cas9 and sgRNA, and the MTAP^-/- HCT-116 cell strain with biallelic inactivation of MTAP was obtained by assays such as Western Blotting and Sanger sequencing. The MTAP^-/- HCT-116 cell strain was used for compound selectivity screening and evaluation based on the synergistic mechanism of MTAP deletion and PRMT5, including a symmetric dimethylarginine (SDMA) level test, a cell proliferation test, and the like.
On day 0, MTAP^-/- HCT-116 cells or wild-type HCT-116 cells were added to a 96-well cell culture plate (Corning, 3599) at 100 cells/well, and the plate was incubated in an incubator at 37 °C with 5% CO2. The compound was diluted in a 3-fold gradient with DMSO (Sigma, D5879) (initial concentration: 20 µM, 3-fold dilution, 8 concentration points in total). On day 1, the compound was diluted to multiple concentration points, and the cells were treated separately and incubated in the incubator at 37 °C with 5% CO2 for another 10 days. On Day 11, 20 µL of MTS (CellTiter 96® AQueous One Solution Cell Proliferation Assay) (Promega, G3581) was added to each well. […] In the formula, Y represents the inhibition rate, X represents the logarithm of the compound concentration, Top represents the maximum response (the inhibition rate at the maximum compound concentration), Bottom represents the baseline response (the inhibition rate where the compound concentration was 0), Hill Slope represents the slope of the IC50 curve, and IC50 represents the half maximal inhibitory concentration.

[2] = tested on: wild-type HCT-116 cells; assay: Cell proliferation (MTS), wild-type HCT-116; type: cell-based; conditions: Homo sapiens, 240 h; wild-type HCT-116, 10 days with compound, MTS reading; read-out: IC50 HCT116 WT
Experimental: MTAP^-/- HCT-116 and wild-type HCT-116 cell strains were cultured in complete medium McCoy's 5A (Gibco, 16600082)/10% FBS (Gibco, 10099141C)/1% p/s (Gibco, 15140122) to evaluate the enhanced inhibitory effect of the compounds against the proliferation selectivity of MTAP^-/- HCT-116 cells. On day 0, MTAP^-/- HCT-116 cells or wild-type HCT-116 cells were added to a 96-well cell culture plate (Corning, 3599) at 100 cells/well, and the plate was incubated in an incubator at 37 °C with 5% CO2. The compound was diluted in a 3-fold gradient with DMSO (Sigma, D5879) (initial concentration: 20 µM, 3-fold dilution, 8 concentration points in total). On day 1, the compound was diluted to multiple concentration points, and the cells were treated separately and incubated in the incubator at 37 °C with 5% CO2 for another 10 days. On Day 11, 20 µL of MTS (CellTiter 96® AQueous One Solution Cell Proliferation Assay) (Promega, G3581) was added to each well. […] In the formula, Y represents the inhibition rate, X represents the logarithm of the compound concentration, Top represents the maximum response (the inhibition rate at the maximum compound concentration), Bottom represents the baseline response (the inhibition rate where the compound concentration was 0), Hill Slope represents the slope of the IC50 curve, and IC50 represents the half maximal inhibitory concentration. Table 1. IC50 (µM)

| IC50 [1] [nM] | IC50 [2] [nM] | Structure (SMILES) | Selectivity [1] |
| --- | --- | --- | --- |
| 2 | 162 | Cc1cc2nc(N)c3cnn(C)c3c2cc1C(=O)N(C)C1COc2cc(C#Cc3cnn(C)c3)ccc21 (stereo not drawn) [Compound 10, 4-amino-N,1,7-trimethyl-N-(6-((1-methyl-1H-pyrazol-4-yl)ethynyl)-2,3-dihydrobenzofuran-3-yl)-1H-pyrazolo[4,3-c]quinoline-8-carboxamide] | 81 |
| 0.5 | 28 | Cc1cc2nc(N)c3cnn(C)c3c2cc1C(=O)N(C)[C@@H]1COc2cc(C#Cc3cnn(C)c3)ccc21 [Compound 10A, (S)-4-amino-N,1,7-trimethyl-N-(6-((1-methyl-1H-pyrazol-4-yl)ethynyl)-2,3-dihydrobenzofuran-3-yl)-1H-pyrazolo[4,3-c]quinoline-8-carboxamide] | 56 |
| 3 | 185 | Cc1cc2nc(N)c3cnn(C)c3c2cc1C(=O)N(C)C1COc2cc(C#Cc3cnn(C4CC4)c3)ccc21 (stereo not drawn) [Compound 11, 4-amino-N-(6-((1-cyclopropyl-1H-pyrazol-4-yl)ethynyl)-2,3-dihydrobenzofuran-3-yl)-N,1,7-trimethyl-1H-pyrazolo[4,3-c]quinoline-8-carboxamide] | 62 |
| 8 | 650 | CN(C(=O)c1cc2c(cc1F)nc(N)c1cnn(C)c12)C1COc2cc(C#Cc3cnn(C4CC4)c3)ccc21 (stereo not drawn) [Compound 12, 4-amino-N-(6-((1-cyclopropyl-1H-pyrazol-4-yl)ethynyl)-2,3-dihydrobenzofuran-3-yl)-7-fluoro-N,1-dimethyl-1H-pyrazolo[4,3-c]quinoline-8-carboxamide] | 81 |
| 11 | 607 | CC(C)n1cc(C#Cc2ccc3c(c2)OCC3N(C)C(=O)c2cc3c(cc2F)nc(N)c2cnn(C)c23)cn1 (stereo not drawn) [Compound 13, 4-amino-7-fluoro-N-(6-((1-isopropyl-1H-pyrazol-4-yl)ethynyl)-2,3-dihydrobenzof uran-3-yl)-N,1-dimethyl-1H-pyrazolo[4,3-c]quinoline-8-carboxamide] | 55 |
| 7 | 405 | CCn1cc(C#Cc2ccc3c(c2)OCC3N(C)C(=O)c2cc3c(cc2F)nc(N)c2cnn(C)c23)cn1 (stereo not drawn) [Compound 17, 4-amino-N-(6-((1-ethyl-1H-pyrazol-4-yl)ethynyl)-2,3-dihydrobenzofuran-3-yl)-7-f luoro-N,1-dimethyl-1H-pyrazolo[4,3-c]quinoline-8-carboxamide] | 58 |
| 3 | 159 | CN(C(=O)c1cc2c(cc1Cl)nc(N)c1cnn(C)c12)C1COc2cc(C#Cc3ccn(C)n3)ccc21 (stereo not drawn) [Compound 18, 4-amino-7-chloro-N,1-dimethyl-N-(6-((1-methyl-1H-pyrazol-3-yl)ethynyl)-2,3-dihydrobenzofuran-3-yl)-1H-pyrazolo[4,3-c]quinoline-8-carboxamide] | 53 |
| 9.7 | 986 | CC(C)n1cc(C#Cc2ccc3c(c2)OCC3N(C)C(=O)c2ccc3nc(N)c4cnn(C)c4c3c2)cn1 (stereo not drawn) [Compound 19, 4-amino-N-(6-((1-isopropyl-1H-pyrazol-4-yl)ethynyl)-2,3-dihydrobenzofuran-3-yl)-N,1-dimethyl-1H-pyrazolo[4,3-c]quinoline-8-carboxamide] | 102 |
| 8.7 | 1300 | CC(C)n1cc(C#Cc2ccc3c(c2)OC[C@H]3N(C)C(=O)c2ccc3nc(N)c4cnn(C)c4c3c2)cn1 [Compound 19A, (S)-4-amino-N-(6-((1-isopropyl-1H-pyrazol-4-yl)ethynyl)-2,3-dihydrobenzofuran-3-yl)-N,1-dimethyl-1H-pyrazolo[4,3-c]quinoline-8-carboxamide] | 149 |
| 9.8 | 948 | CCn1cc(C#Cc2ccc3c(c2)OCC3N(C)C(=O)c2ccc3nc(N)c4cnn(C)c4c3c2)cn1 (stereo not drawn) [Compound 20, 4-amino-N-(6-((1-ethyl-1H-pyrazol-4-yl)ethynyl)-2,3-dihydrobenzofuran-3-yl)-N, 1-dimethyl-1H-pyrazolo[4,3-c]quinoline-8-carboxamide] | 97 |
| 6.1 | 1040 | CCn1cc(C#Cc2ccc3c(c2)OC[C@H]3N(C)C(=O)c2ccc3nc(N)c4cnn(C)c4c3c2)cn1 [Compound 20A, (S)-4-amino-N-(6-((1-ethyl-1H-pyrazol-4-yl)ethynyl)-2,3-dihydrobenzofuran-3-yl)-N,1-dimethyl-1H-pyrazolo[4,3-c]quinoline-8-carboxamide] | 170 |
| 7 | 365 | CN(C(=O)c1cc2c(cc1F)nc(N)c1cnn(C)c12)C1COc2cc(C#Cc3ccn(C)n3)ccc21 (stereo not drawn) [Compound 21, 4-amino-7-fluoro-N,1-dimethyl-N-(6-((1-methyl-1H-pyrazol-3-yl)ethynyl)-2,3-dihydrobenzofuran-3-yl)-1H-pyrazolo[4,3-c]quinoline-8-carboxamide] | 52 |
| 2.7 | 233 | CN(C(=O)c1cc2c(cc1F)nc(N)c1cnn(C)c12)[C@@H]1COc2cc(C#Cc3ccn(C)n3)ccc21 [Compound 21A, (S)-4-amino-7-fluoro-N,1-dimethyl-N-(6-((1-methyl-1H-pyrazol-3-yl)ethynyl)-2,3-dihydrobenzofuran-3-yl)-1H-pyrazolo[4,3-c]quinoline-8-carboxamide] | 86.3 |
| 1.9 | 95 | Cc1c(C#Cc2ccc3c(c2)OCC3N(C)C(=O)c2cc3c(cc2Cl)nc(N)c2cnn(C)c23)cnn1C (stereo not drawn) [Compound 22, 4-amino-7-chloro-N-(6-((1,5-dimethyl-1H-pyrazol-4-yl)ethynyl)-2,3-dihydrobenzofuran-3-yl)-N,1-dimethyl-1H-pyrazolo[4,3-c]quinoline-8-carboxamide] | 50 |
| 1 | 55 | Cc1c(C#Cc2ccc3c(c2)OC[C@H]3N(C)C(=O)c2cc3c(cc2Cl)nc(N)c2cnn(C)c23)cnn1C [Compound 22A, (S)-4-amino-7-chloro-N-(6-((1,5-dimethyl-1H-pyrazol-4-yl)ethynyl)-2,3-dihydrobenzofuran-3-yl)-N,1-dimethyl-1H-pyrazolo[4,3-c]quinoline-8-carboxamide] | 55 |
| 4 | 307 | Cc1c(C#Cc2ccc3c(c2)OCC3N(C)C(=O)c2cc3c(cc2F)nc(N)c2cnn(C)c23)cnn1C (stereo not drawn) [Compound 23, 4-amino-N-(6-((1,5-dimethyl-1H-pyrazol-4-yl)ethynyl)-2,3-dihydrobenzofuran-3-yl)-7-fluoro-N,1-dimethyl-1H-pyrazolo[4,3-c]quinoline-8-carboxamide] | 77 |
| 1.9 | 115 | CN(C(=O)c1cc2c(cc1F)nc(N)c1cnn(C)c12)C1COc2cc(C#Cc3cn(C)nc3Cl)ccc21 (stereo not drawn) [Compound 24, 4-amino-N-(6-((3-chloro-1-methyl-1H-pyrazol-4-yl)ethynyl)-2,3-dihydrobenzofuran-3-yl)-7-fluoro-N,1-dimethyl-1H-pyrazolo[4,3-c]quinoline-8-carboxamide] | 61 |
| 4.7 | 471 | Cc1nn(C)cc1C#Cc1ccc2c(c1)OCC2N(C)C(=O)c1cc2c(cc1F)nc(N)c1cnn(C)c12 (stereo not drawn) [Compound 25, 4-amino-N-(6-((1,3-dimethyl-1H-pyrazol-4-yl)ethynyl)-2,3-dihydrobenzofuran-3-yl)-7-fluoro-N,1-dimethyl-1H-pyrazolo[4,3-c]quinoline-8-carboxamide] | 100 |
| 3.2 | 185 | CCN(C(=O)c1cc2c(cc1F)nc(N)c1cnn(C)c12)C1COc2cc(C#Cc3cnn(C)c3)ccc21 (stereo not drawn) [Compound 27, 4-amino-N-ethyl-7-fluoro-1-methyl-N-(6-((1-methyl-1H-pyrazol-4-yl)ethynyl)-2,3-dihydrobenzofuran-3-yl)-1H-pyrazolo[4,3-c]quinoline-8-carboxamide] | 58 |
